Results from US20230346827A1 (priority 2020, published 2023).

Tested on: rats subjected to sTBI
Assay: sTBI rats, LMW-DS 1, 5, 15 mg/kg s.c. 30 min post-TBI: HPLC of brain energy metabolites, antioxidants, oxidative/nitrosative stress biomarkers (Example 4)
Format: in vivo, rat
Method: Male Wistar rats (n=160) of 300-350 g body weight were used in this study. They were fed with standard laboratory diet and water ad libitum in a controlled environment.
As the accepted anesthetic mixture, animals received 35 mg/kg b.w. ketamine and 0.25 mg/kg body weight midazolam by intramuscular injection. Diffuse sTBI was induced according to the “weight drop” impact acceleration model set up by Marmarou et al. J. Neurosurg. 1994, 80: 291-300. This model causes diffuse axonal injury and it is able to reproduce the physical and mechanical characteristics of the diffuse TBI in humans.
Severe TBI was induced by dropping a 450 g weight from 2 meters height onto the rat head protected by a helmet (metal disk previously fixed on the skull using dental cement) in order to uniformly distribute the mechanical force to the brain. Rats were placed prone on a bed of specific polyurethane foam inserted in a special container; this foam dissipates the major part of the potential energy (deriving from the mechanical forces) and prevents any rebound of the animal after the impact that could produce spinal damages.
After 2 or 7 days from TBI induction, rats were anesthetized again and then immediately sacrificed. These time points are coincident with the worst biochemical derangement (2 days) or, in the case of a mildly injured brain, with a full metabolic recovery (7 days).
The drug treatment consisted in a subcutaneous injection of 0.5 ml of LMW-DS (ILB®, Tikomed, Viken, Sweden, WO 2016/076780) and administered at 3 different concentrations (1, 5 and 15 mg/kg body weight), according to the schematic protocol described below. Sham-operated animals underwent the same procedure of anesthesia but TBI and were used as the control group.
(§1) Rats subjected to sTBI and receiving a single administration of LMW-DS after 30 minutes post-TBI, with sacrifice at 2 days post-TBI. Animals were divided in the following subgroups: • 1. 12 animals subjected to sTBI and treated with 1 mg/kg b.w. LMW-DS • 2. 12 animals subjected to sTBI and treated with 5 mg/kg b.w. LMW-DS • 3. 12 animals subjected to sTBI and treated with 15 mg/kg b.w. LMW-DS
as §1, with “at 7” for “at 2”
Rats (n = 12) subjected to sTBI and receiving repeated administrations of the maximal dose of LMW-DS (15 mg/kg b.w.) after 30 minutes, 3 days and 5 days post-TBI, with sacrifice at 7 days post-TBI. Four additional rats were used for the histo-morphological studies. Total rats in this group: n=16
To minimize metabolite loss, an in vivo craniectomy was performed in all animals during anesthesia. The rat skull was carefully removed, the brain was exposed, sharply cut along the sagittal fissure and the two hemispheres were separated. The hemispheres dedicated to biochemical analyses were freeze-clamped by aluminum tongues pre-cooled in liquid nitrogen and then immersed in liquid nitrogen. The freeze-clamping procedure was introduced to accelerate freezing of the tissue, thus minimizing potential metabolite loss.
Tissue homogenization for metabolite analyses was effected as described below. After the wet weight (w.w.) determination, the frozen hemispheres were placed into 7 ml of ice-cold, nitrogen-saturated, precipitating solution (1:10 w/v) composed by CH3CN + 10 mM KH2PO4, pH 7.40, (3:1; v:v), and the homogenization was performed using an Ultra-Turrax homogenizer set at 24,000 rpm/min (Janke & Kunkel, Staufen, Germany). […]

[1] = 1 mg/kg, 7 d post-sTBI, adimensional ratio

Q: How did the UDP-Glc (1 mg/kg, 7 d post-sTBI) turn out when sodium salt of dextran sulfate [LMW-DS] was run?
A: 63.19 ± 12.84 nmol/g w.w.

Q: What about the UDP-GlcNac (1 mg/kg, 7 d post-sTBI) of the same substance?
A: 85.36 ± 29.53 nmol/g w.w.

Q: And the UMP (1 mg/kg, 7 d post-sTBI)?
A: 103.06 ± 19.96 nmol/g w.w.

Q: And the URACIL (1 mg/kg, 7 d post-sTBI)?
A: 14.78 ± 3.04 nmol/g w.w.

Q: And the “URIC ACID” value (1 mg/kg, 7 d post-sTBI)?
A: 7.13 ± 1.70 nmol/g w.w.

Q: And the URIDINE (1 mg/kg, 7 d post-sTBI)?
A: 110.17 ± 26.11 nmol/g w.w.

Q: And the UTP (1 mg/kg, 7 d post-sTBI)?
A: 179.75 ± 31.48 nmol/g w.w.

Q: What about the XANTHINE (1 mg/kg, 7 d post-sTBI) of the same substance?
A: 12.53 ± 3.54 nmol/g w.w.

Q: And the β-PSEUDOURIDINE (1 mg/kg, 7 d post-sTBI)?
A: 14.00 ± 2.60 nmol/g w.w.

Q: And the ATP/ADP [1]?
A: 6.12 ± 0.78

Q: And the “NAD+/NADH” value [1]?
A: 33.91 ± 9.32

Q: And the ADENOSINE (5 mg/kg, 2 d post-sTBI)?
A: 92.58 ± 22.16 nmol/g w.w.

Q: What about the ADP (5 mg/kg, 2 d post-sTBI) of the same substance?
A: 364.92 ± 31.39 nmol/g w.w.

Q: And the ADP-Ribose (5 mg/kg, 2 d post-sTBI)?
A: 21.65 ± 4.35 nmol/g w.w.

Q: What about the AMP (5 mg/kg, 2 d post-sTBI) of the same substance?
A: 67.03 ± 11.85 nmol/g w.w.

Q: And the “ASCORBIC ACID” value (5 mg/kg, 2 d post-sTBI)?
A: 2626.68 ± 151.17 nmol/g w.w.

Q: What about the ATP (5 mg/kg, 2 d post-sTBI) of the same substance?
A: 1683.87 ± 98.66 nmol/g w.w.

Q: What about the Acetyl-CoA (5 mg/kg, 2 d post-sTBI) of the same substance?
A: 34.85 ± 4.05 nmol/g w.w.

Q: And the CDP choline (5 mg/kg, 2 d post-sTBI)?
A: 5.16 ± 0.77 nmol/g w.w.

Q: What about the CMP (5 mg/kg, 2 d post-sTBI) of the same substance?
A: 28.94 ± 5.91 nmol/g w.w.

Q: What about the CREATININE (5 mg/kg, 2 d post-sTBI) of the same substance?
A: 10.22 ± 1.90 nmol/g w.w.

Q: And the CTP (5 mg/kg, 2 d post-sTBI)?
A: 37.72 ± 7.63 nmol/g w.w.

Q: And the CYTIDINE (5 mg/kg, 2 d post-sTBI)?
A: 7.47 ± 1.35 nmol/g w.w.

Q: And the CYTOSINE (5 mg/kg, 2 d post-sTBI)?
A: 13.65 ± 1.67 nmol/g w.w.

Q: And the CoA-SH (5 mg/kg, 2 d post-sTBI)?
A: 7.46 ± 0.82 nmol/g w.w.

Q: And the GDP (5 mg/kg, 2 d post-sTBI)?
A: 183.27 ± 25.32 nmol/g w.w.

Q: And the “GDP Glucose” value (5 mg/kg, 2 d post-sTBI)?
A: 83.81 ± 37.35 nmol/g w.w.

Q: And the GMP (5 mg/kg, 2 d post-sTBI)?
A: 167.44 ± 8.47 nmol/g w.w.

Q: What about the GSH (5 mg/kg, 2 d post-sTBI) of the same substance?
A: 2067.79 ± 301.54 nmol/g w.w.

Q: And the GTP (5 mg/kg, 2 d post-sTBI)?
A: 180.01 ± 18.99 nmol/g w.w.

Q: What about the GUANINE (5 mg/kg, 2 d post-sTBI) of the same substance?
A: 1.68 ± 0.42 nmol/g w.w.

Q: What about the GUANOSINE (5 mg/kg, 2 d post-sTBI) of the same substance?
A: 30.97 ± 5.15 nmol/g w.w.

Q: And the HYPOXANTHINE (5 mg/kg, 2 d post-sTBI)?
A: 4.18 ± 0.68 nmol/g w.w.

Q: What about the IMP (5 mg/kg, 2 d post-sTBI) of the same substance?
A: 33.19 ± 6.25 nmol/g w.w.

Q: And the INOSINE (5 mg/kg, 2 d post-sTBI)?
A: 114.89 ± 14.98 nmol/g w.w.

Q: What about the MDA (5 mg/kg, 2 d post-sTBI) of the same substance?
A: 32.73 ± 5.33 nmol/g w.w.

Q: What about the Malonyl-CoA (5 mg/kg, 2 d post-sTBI) of the same substance?
A: 35.58 ± 7.54 nmol/g w.w.

Q: And the NADH (5 mg/kg, 2 d post-sTBI)?
A: 10.37 ± 1.19 nmol/g w.w.

Q: What about the NADPH (5 mg/kg, 2 d post-sTBI) of the same substance?
A: 37.48 ± 3.11 nmol/g w.w.

Q: What about the “NADP^+” value (5 mg/kg, 2 d post-sTBI) of the same substance?
A: 11.86 ± 2.71 nmol/g w.w.

Q: And the “NAD^+” value (5 mg/kg, 2 d post-sTBI)?
A: 376.85 ± 64.15 nmol/g w.w.

Q: And the NO2 (5 mg/kg, 2 d post-sTBI)?
A: 218.12 ± 26.28 nmol/g w.w.

Q: What about the NO3 (5 mg/kg, 2 d post-sTBI) of the same substance?
A: 148.41 ± 32.30 nmol/g w.w.

Q: What about the UDP (5 mg/kg, 2 d post-sTBI) of the same substance?
A: 70.93 ± 7.27 nmol/g w.w.

Q: What about the UDP-Gal (5 mg/kg, 2 d post-sTBI) of the same substance?
A: 116.42 ± 9.72 nmol/g w.w.

Q: What about the “UDP-GalNac” value (5 mg/kg, 2 d post-sTBI) of the same substance?
A: 20.75 ± 3.06 nmol/g w.w.

Q: What about the UDP-Glc (5 mg/kg, 2 d post-sTBI) of the same substance?
A: 28.60 ± 4.23 nmol/g w.w.

Q: And the UDP-GlcNac (5 mg/kg, 2 d post-sTBI)?
A: 140.58 ± 12.80 nmol/g w.w.

Q: What about the UMP (5 mg/kg, 2 d post-sTBI) of the same substance?
A: 97.98 ± 13.53 nmol/g w.w.

Q: And the URACIL (5 mg/kg, 2 d post-sTBI)?
A: 17.83 ± 3.48 nmol/g w.w.

Q: And the “URIC ACID” value (5 mg/kg, 2 d post-sTBI)?
A: 11.22 ± 2.30 nmol/g w.w.

Q: And the URIDINE (5 mg/kg, 2 d post-sTBI)?
A: 117.21 ± 20.64 nmol/g w.w.

Q: And the UTP (5 mg/kg, 2 d post-sTBI)?
A: 142.82 ± 22.43 nmol/g w.w.

Q: And the XANTHINE (5 mg/kg, 2 d post-sTBI)?
A: 6.71 ± 0.70 nmol/g w.w.

Q: And the β-PSEUDOURIDINE (5 mg/kg, 2 d post-sTBI)?
A: 10.41 ± 2.09 nmol/g w.w.

Q: And the “NAD^+/NADH” value (5 mg/kg, 2 d post-sTBI, adimensional ratio)?
A: 36.61 ± 6.09

Q: And the ADENOSINE (5 mg/kg, 7 d post-sTBI)?
A: 22.24 ± 16.47 nmol/g w.w.

Q: And the ADP (5 mg/kg, 7 d post-sTBI)?
A: 289.27 ± 38.52 nmol/g w.w.

Q: And the ADP-Ribose (5 mg/kg, 7 d post-sTBI)?
A: 6.76 ± 1.70 nmol/g w.w.

Q: What about the AMP (5 mg/kg, 7 d post-sTBI) of the same substance?
A: 59.50 ± 4.68 nmol/g w.w.

Q: And the “ASCORBIC ACID” value (5 mg/kg, 7 d post-sTBI)?
A: 2195.87 ± 264.45 nmol/g w.w.

Q: And the ATP (5 mg/kg, 7 d post-sTBI)?
A: 1730.92 ± 139.24 nmol/g w.w.

Q: What about the Acetyl-CoA (5 mg/kg, 7 d post-sTBI) of the same substance?
A: 22.87 ± 3.89 nmol/g w.w.

Q: And the CDP choline (5 mg/kg, 7 d post-sTBI)?
A: 10.37 ± 3.33 nmol/g w.w.

Q: What about the CMP (5 mg/kg, 7 d post-sTBI) of the same substance?
A: 55.67 ± 22.97 nmol/g w.w.

Q: And the CREATININE (5 mg/kg, 7 d post-sTBI)?
A: 5.48 ± 0.97 nmol/g w.w.

Q: And the CTP (5 mg/kg, 7 d post-sTBI)?
A: 79.08 ± 14.54 nmol/g w.w.

Q: And the CYTIDINE (5 mg/kg, 7 d post-sTBI)?
A: 26.51 ± 9.33 nmol/g w.w.

Q: What about the CYTOSINE (5 mg/kg, 7 d post-sTBI) of the same substance?
A: 12.67 ± 2.72 nmol/g w.w.

Q: What about the CoA-SH (5 mg/kg, 7 d post-sTBI) of the same substance?
A: 51.86 ± 6.66 nmol/g w.w.

Q: And the GDP (5 mg/kg, 7 d post-sTBI)?
A: 126.82 ± 14.49 nmol/g w.w.

Q: What about the “GDP Glucose” value (5 mg/kg, 7 d post-sTBI) of the same substance?
A: 104.76 ± 12.25 nmol/g w.w.

Q: And the GMP (5 mg/kg, 7 d post-sTBI)?
A: 101.42 ± 48.00 nmol/g w.w.

Q: What about the GSH (5 mg/kg, 7 d post-sTBI) of the same substance?
A: 2412.17 ± 317.97 nmol/g w.w.

Q: What about the GTP (5 mg/kg, 7 d post-sTBI) of the same substance?
A: 453.86 ± 41.27 nmol/g w.w.

Q: What about the GUANINE (5 mg/kg, 7 d post-sTBI) of the same substance?
A: 7.92 ± 3.37 nmol/g w.w.

Q: And the GUANOSINE (5 mg/kg, 7 d post-sTBI)?
A: 33.42± 6.96 nmol/g w.w.

Q: What about the HYPOXANTHINE (5 mg/kg, 7 d post-sTBI) of the same substance?
A: 13.45 ± 3.91 nmol/g w.w.

Q: And the IMP (5 mg/kg, 7 d post-sTBI)?
A: 68.72 ± 17.60 nmol/g w.w.

Q: And the INOSINE (5 mg/kg, 7 d post-sTBI)?
A: 196.61 ± 22.06 nmol/g w.w.

Q: What about the MDA (5 mg/kg, 7 d post-sTBI) of the same substance?
A: 17.78 ± 2.94 nmol/g w.w.
